Measurements reported in ChEMBL document CHEMBL5523733, “Small Molecule Targeting PPM1A Activates Autophagy for Mycobacterium tuberculosis Host-Directed Therapy” (J Med Chem, 2024).
pIC50, pKi: −log10 of the molar value. Calls of active or inactive are those of the source. The rule behind the calls is not given here.

How the values were obtained:
[1] = target: T1, Protein phosphatase 1A (Homo sapiens, UniProt P35813); assay: Inhibition of recombinant human PPM1A using pNPP as substrate preincubated for 15 mins followed by substrate addition measured after 20 mins by absorbance based assay
T1 sequence (P35813 whole entry): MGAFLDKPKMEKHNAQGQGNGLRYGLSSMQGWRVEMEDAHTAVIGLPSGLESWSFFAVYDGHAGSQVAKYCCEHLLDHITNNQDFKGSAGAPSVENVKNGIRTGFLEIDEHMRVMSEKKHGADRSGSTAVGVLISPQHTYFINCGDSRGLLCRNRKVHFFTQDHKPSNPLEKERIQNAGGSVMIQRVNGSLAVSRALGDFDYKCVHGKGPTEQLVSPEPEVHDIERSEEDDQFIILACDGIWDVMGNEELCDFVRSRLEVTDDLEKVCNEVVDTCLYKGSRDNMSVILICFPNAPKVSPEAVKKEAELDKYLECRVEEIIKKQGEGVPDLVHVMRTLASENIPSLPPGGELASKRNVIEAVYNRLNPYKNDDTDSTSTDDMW

[2] = Cytotoxicity against human Caco-2 cells by resazurin dye based assay; assay type: toxicity, cell-based
[3] = Cytotoxicity against human THP-1 cells by resazurin dye based assay; assay type: toxicity, cell-based
[4] = test system: THP-1; assay: Cytotoxicity against human THP-1 monocytes assessed as cell viability at 0.1 to 10 uM incubated for 24 hrs by flow cytometry; assay type: toxicity, cell-based; settings: thp-1, 24 h, dose 0.1-10 µM
[5] = test system: THP-1; assay: Cytotoxicity against human THP-1 macrophages assessed as cell viability at 0.1 to 10 uM incubated for 24 hrs by flow cytometry; assay type: toxicity, cell-based; settings: thp-1, 24 h, dose 0.1-10 µM
[6] = target: T1, Protein phosphatase 1A; assay: Inhibition of PPM1A (unknown origin)
[7] = test system: dsDNA; assay: Binding affinity to dsDNA (unknown origin) assessed as reduction in fluorescence intensity at 5 uM; assay type: nucleic-acid assay
[8] = test system: THP-1; assay: Induction of DNA damage in human THP-1 monocytes assessed as increase in gamma-H2AX at 0.1 to 10 uM incubated for 24 hrs by Western blot analysis; assay type: toxicity, cell-based; settings: thp-1, 24 h, dose 0.1-10 µM
[9] = test system: THP-1; assay: Induction of DNA damage in human THP-1 macrophages assessed as increase in gamma-H2AX at 0.1 to 10 uM incubated for 24 hrs by Western blot analysis; assay type: toxicity, cell-based; settings: thp-1, 24 h, dose 0.1-10 µM
[10] = Clearance in ICR mouse at 2 mg/kg, iv measured for 24 hrs; assay type: ADME, organism-based; settings: in vivo
[11] = Toxicity in BALB/c mouse assessed as change in spleen weight at 12.5 to 100 mg/kg, ip administered daily for 14 days; assay type: organism-based; settings: in vivo, 336 h, dose 12.5-100 mg/kg, time 14 day
[12] = Half life in ICR mouse at 10 mg/kg, po measured for 24 hrs; assay type: ADME, organism-based; settings: in vivo
[13] = Toxicity in BALB/c mouse assessed as change in kidney weight at 12.5 to 100 mg/kg, ip administered daily for 14 days; assay type: organism-based; settings: in vivo, 336 h, dose 12.5-100 mg/kg, time 14 day
[14] = Toxicity in BALB/c mouse assessed as visible abnormality at 12.5 to 50 mg/kg, ip administered daily for 14 days; assay type: organism-based; settings: in vivo, 336 h, dose 12.5-50 mg/kg, time 14 day
[15] = Toxicity in BALB/c mouse infected with Mycobacterium tuberculosis mc2 6206 assessed as body weight loss at 12.5 to 50 mg/kg, ip administered daily for 8 days; assay type: organism-based; settings: in vivo, 192 h, dose 12.5-50 mg/kg, time 8 day
[16] = test system: dsDNA; assay: Binding affinity to dsDNA (unknown origin) assessed as reduction in fluorescence intensity at 5 uM relative to control; assay type: nucleic-acid assay; design: scale not given: the % may be the effect or the level left
[17] = Cmax in ICR mouse at 10 mg/kg, po measured for 24 hrs; assay type: ADME, organism-based; settings: in vivo
[18] = test system: Mycobacterium tuberculosis; assay: Anti-mycobacterial activity against Mycobacterium tuberculosis mc2 6206 assessed as bacterial growth inhibition at 20 uM incubated for 5 days by resazurin dye based assay; assay type: functional, organism-based; settings: time 5.0 day
[19] = AUC (infinity) in ICR mouse at 10 mg/kg, po measured for 24 hrs; assay type: ADME, organism-based; settings: in vivo
[20] = test system: Mycobacterium tuberculosis; assay: Inhibition of Mycobacterium tuberculosis mc2 6206 burden in lung of BALB/c mouse infected with at 12.5 to 50 mg/kg, ip administered daily for 8 days; assay type: functional, organism-based; settings: dose 12.5-50 mg/kg, time 8.0 day
[21] = Toxicity in BALB/c mouse assessed as increase in brain weight at higher concentration administered intraperitoneally daily for 14 days; assay type: tissue-based; settings: in vivo, ip, 336 h, time 14 day
[22] = Toxicity in BALB/c mouse assessed as body weight change at 12.5 to 100 mg/kg, ip administered daily for 14 days; assay type: organism-based; settings: in vivo, 336 h, dose 12.5-100 mg/kg, time 14 day
[23] = test system: Mycobacterium tuberculosis; assay: Anti-mycobacterial activity against Mycobacterium tuberculosis mc2 6206 infected in BALB/c mouse assessed as reduction in bacterial burden in spleen administered intraperitoneally daily for 8 days; assay type: functional, organism-based; settings: dose 12.5-50 mg/kg, route ip, time 8.0 day
[24] = Toxicity in BALB/c mouse assessed as increase in stress level at 100 mg/kg, ip administered daily for 14 days; assay type: organism-based; settings: in vivo, 336 h, time 14 day
[25] = test system: THP-1; assay: Induction of autophagy in human THP-1 macrophages assessed as increase in p62 phosphorylation at S403 incubated for 24 hrs in presence of bafilomycin by Western blot analysis; assay type: functional, cell-based; settings: dose 0.25-8 µM
[26] = Tmax in ICR mouse at 10 mg/kg, po measured for 24 hrs; assay type: ADME, organism-based; settings: in vivo
[27] = AUClast in ICR mouse at 2 mg/kg, iv measured for 24 hrs; assay type: ADME, organism-based; settings: in vivo
[28] = Toxicity in BALB/c mouse assessed as change in liver weight at 12.5 to 100 mg/kg, ip administered daily for 14 days; assay type: organism-based; settings: in vivo, 336 h, dose 12.5-100 mg/kg, time 14 day
[29] = Toxicity in BALB/c mouse assessed as change in lung weight at 12.5 to 100 mg/kg, ip administered daily for 14 days; assay type: organism-based; settings: in vivo, 336 h, dose 12.5-100 mg/kg, time 14 day
[30] = Toxicity in BALB/c mouse infected with Mycobacterium tuberculosis mc2 6206 assessed as visible toxic signs at 12.5 to 50 mg/kg, ip administered daily for 8 days; assay type: organism-based; settings: in vivo, 192 h, dose 12.5-50 mg/kg, time 8 day
[31] = test system: THP-1; assay: Induction of autophagy in human THP-1 macrophages assessed as increase in lipidated LC3-II level at 0.25 to 8 uM incubated for 24 hrs in presence of bafilomycin by Western blot analysis; assay type: functional, cell-based; settings: dose 0.25-8 µM
[32] = Toxicity in BALB/c mouse assessed as increase in irritability at 100 mg/kg, ip administered daily for 14 days; assay type: organism-based; settings: in vivo, 336 h, time 14 day
[33] = AUC (infinity) in ICR mouse at 2 mg/kg, iv measured for 24 hrs; assay type: ADME, organism-based; settings: in vivo
[34] = AUClast in ICR mouse at 10 mg/kg, po measured for 24 hrs; assay type: ADME, organism-based; settings: in vivo
[35] = Half life in ICR mouse at 2 mg/kg, iv measured for 24 hrs; assay type: ADME, organism-based; settings: in vivo
[36] = Oral bioavailability in ICR mouse at 10 mg/kg measured for 24 hrs; assay type: ADME, organism-based; settings: in vivo

OCC[n+]1cccc2cc(F)ccc21
pIC50 [1]: < 4.70

CC(C)COc1ccc2c(c1)c[n+](CCO)c1ccc(F)cc21
pIC50 [1]: < 4.70

COc1ccc2c(c1)c[n+](CCO)c1ccc(Br)cc21
CC50 [2]: 185 µM | pIC50 [1]: 5.35 | CC50 [3]: 68 µM

COc1ccc2c(c1)c[n+](CCO)c1ccc(F)cc21.[Br-]
Activity [4]: Non-Toxic | Activity [5]: Non-Toxic | pIC50 [6]: 5.92 | pKi [6]: 6.08 | Activity [7]: inactive | Activity [8]: Non-Toxic | CC50 [2]: > 200 µM | pIC50 [1]: 5.92 | CC50 [3]: 94.8 µM | Activity [9]: Non-Toxic

COc1ccc2cc[n+](CCO)cc2c1
pIC50 [1]: < 4.70

COc1cc2c[n+](CCO)c3ccc(F)cc3c2cc1-c1cc(C)cc(C)c1
pIC50 [1]: < 4.70

COc1ccc2c(c1)c[n+](NCCO)c1ccc(F)cc21
pIC50 [1]: < 5.00

COc1ccc2c(c1)c[n+](CC(C)O)c1ccc(F)cc21 (stereo not drawn)
pIC50 [1]: < 4.70

OCC[n+]1cc2cc3c(cc2c2cc(F)ccc21)OCO3
pIC50 [1]: < 4.70

COc1ccc(-c2cc3c(cc2OC)c[n+](CCO)c2ccc(F)cc32)cc1
CC50 [2]: 74.6 µM | pIC50 [1]: 6.54 | CC50 [3]: 37.2 µM

CCOc1ccc2c(c1)c[n+](CCO)c1ccc(F)cc21.[Br-]
clearance [10]: 170 mL/min/kg | Activity [11]: Non-Toxic | half-life [12]: 46.3 min | Activity [4]: Non-Toxic | Activity [13]: Non-Toxic | Activity [14]: Non-Toxic | Activity [5]: Non-Toxic | Activity [15]: Non-Toxic | Activity [16]: 10% | Cmax [17]: 908 ng/mL | inhibition [18]: inactive | AUC(0-inf) [19]: 761 ng·h/mL | inhibition [20]: inactive | Activity [21]: Toxic | Activity [22]: Non-Toxic | Activity [23]: Dose-Dependent Effect | Activity [24]: Toxic | Activity [25]: Dose-Dependent Effect | Tmax [26]: 15 min | Activity [8]: Non-Toxic | CC50 [2]: > 200 µM | AUC(0-t) at 24 h [27]: 206 ng·h/mL | Activity [28]: Non-Toxic | pIC50 [1]: 6.74 | pKi [1]: 6.23 | Activity [29]: Non-Toxic | Activity [30]: Non-Toxic | Activity [31]: Active | Activity [32]: Toxic | AUC(0-inf) [33]: 208 ng·h/mL | CC50 [3]: 138 µM | AUC(0-t) at 24 h [34]: 759 ng·h/mL | Activity [9]: Non-Toxic | half-life [35]: 38 min | bioavailability [36]: 73.7%

COc1cc2c[n+](CCO)c3ccc(F)cc3c2cc1I
pIC50 [1]: < 4.70

COc1ccc2c(c1)c[n+](CCCCO)c1ccc(F)cc21
pIC50 [1]: < 4.70

COc1ccc2c(c1)c[n+](C(C)CO)c1ccc(F)cc21 (stereo not drawn)
pIC50 [1]: < 5.00

COc1ccc2c(c1)c[n+](CCO)c1ccccc21
pIC50 [1]: < 4.70

COc1ccc2c(c1)c[n+](CCO)c1ccc(Cl)cc21
pIC50 [1]: < 4.70

CCOc1ccc2c(c1)c1ccc(OC)cc1c[n+]2CCO
pIC50 [1]: < 4.70

COc1ccc2c(c1)c[n+](CCO)c1ccc(OC)cc21
CC50 [2]: > 200 µM | pIC50 [1]: 5.59 | CC50 [3]: 47.2 µM

COc1ccc2c(c1)c[n+](CCCO)c1ccc(F)cc21
pIC50 [1]: < 5.00
